In publication PMC10590419, “Structural and mechanistic insights into the inhibition of respiratory syncytial virus polymerase by a non-nucleoside inhibitor” (Communications Biology, 2023):

Legend:
in vitro [1] = conditions: rhesus monkey
Human RNA polymerase II = Human RNA polymerase II (Homo sapiens, UniProt P24928+P30876); experiment: RNA polymerase II DdRp activity (HeLa nuclear extract); type: biochemical; conditions: RNA Pol II
in vitro [2] = conditions: human
[3] = Cell viability of replicon cell line (CellTiter-Glo); type: cell-based; conditions: hamster, APC-126 cells (BHK-derived, stable RSV A2 replicon); APC-126, CellTiter-Glo
Description: (§1) The RSV subgenomic replicon system was licensed from Apath (Apath, NY, USA)[49],[50]. The BHK-derived cell line (APC-126) containing the stable RSV A2 replicon was cultured in DMEM/Hams F-12 medium supplemented with 10% (v/v) FBS (Gibco), 1% (v/v) penicillin (10,000 units/mL) and streptomycin (10,000 µg/mL) solution (Gibco), 1% (v/v) MEM non-essential amino acids solution (Gibco), 5% (v/v) Tryptose Phosphate Broth solution (29.5 g/l) (Sigma-Aldrich) and 10 µg/ml of blasticidin solution (Invivogen). Cells were maintained at 37 °C in a humidified 5% CO2 atmosphere. 5000 cells were plated in 96-well clear plates (Corning) in 100 µl/well of medium. […] Cell viability (CC50 and CC90) was measured with a CellTiter-Glo cell proliferation assay (Promega, 100 µl/well of reagent). Results were expressed as EC50 and EC90 values as well as CC50 and CC90 values.

RSV L+P complex = RSV L+P complex (Human respiratory syncytial virus A, UniProt P28887); experiment: Thermal shift assay (Prometheus NT.48); type: binding, Human RSV (strain A2); conditions: read-out: increase in melting temperature (Tm)
[4] = test system: RSV minigenome transcription and RNA replication; experiment: RSV minigenome assay in BSR-T7 cells; type: cell-based, respiratory syncytial virus
Description: RSV transcription and RNA replication were analyzed using a replication-deficient minigenome, in which the minigenome template contained a single nucleotide substitution in the trailer region, limiting it to the antigenome step of RNA replication and uncoupling transcription from replication. Minigenome transcription and replication were reconstituted intracellularly. BSR-T7 cells, a T7 RNA polymerase expressing cell line, were cultured in a 6-well dish and transfected with T7-driven plasmids that expressed the minigenome template (200 ng/ well), and the RSV proteins N (400 ng/ well), P (200 ng/ well), L (100 ng/ well) and M2-1 (100 ng/ well). Transfections were performed using Lipofectamine (Thermofisher) according to the manufacturer’s directions. […] Input minigenome RNA, antigenome RNA, and mRNAs were detected by subjecting RNA to electrophoresis in 1.5% agarose-formaldehyde gels in MOPS buffer, followed by Northern blotting using ^32P labeled riboprobes specific to negative sense minigenome (to detect the input RNA) and to positive sense antigenome and mRNAs. The same RNA samples were also analyzed by primer extension using ^32P end-labeled primers corresponding in sequence to nucleotides 15–39 of the leader region (to detect RNA initiated from the +1U and +3 C sites on the promoter). […] Quantification was performed by phosphorimage analysis. […]

[5] = test system: PIV-1 (recombinant Washington/20993/1964-derived strain encoding GFP); type: cell-based, parainfluenza virus type 1
[6] = test system: rVSV (Indiana strain-derived, luciferase reporter); experiment: microbe, parasite or virus in culture; type: cell-based, vesicular stomatitis virus
[7] = test system: RSV B clinical isolates and laboratory strains; experiment: Inhibition of RSV-B clinical isolates and laboratory strains, RT-qPCR, HeLa; type: cell-based; conditions: human respiratory syncytial virus, 6 strains, read-out: Median EC50
Description: Then, 100 µL of a HeLa cell suspension (5 × 10^4 cells/mL) in culture medium was added to each well. […] After 3 days of incubation, the supernatant was removed from wells. Plates were washed twice with ice-cold PBS (100 µL/well), and were then sealed and stored overnight at −80 °C. Next, 50 µL of lysis solution supplemented with DNAse was added to the plates and incubated for 5 min followed by the addition of 5 µL stop solution (Ambion Cell-to-CT bulk lysis reagent buffer). […] Roche) for cDNA synthesis. Reverse transcription was performed at 42 °C for 30 min, followed by denaturation at 95 °C for 5 min. […] The reaction consisted of a denaturation step (95 °C for 600 s), 45 cycles of denaturation (95 °C for 15 s) and annealing/elongation (60 °C for 60 s), and a step of cooling (40 °C for 10 s).

[8] = test system: RSV A2 replicon in APC-126 cells; experiment: RSV subgenomic replicon (minireplicon) assay, luciferase; type: cell-based; conditions: human respiratory syncytial virus, APC-126, 72 h, read-out: Median EC50
Description: as §1

RSV L+P complex, sequence (P03421 whole entry): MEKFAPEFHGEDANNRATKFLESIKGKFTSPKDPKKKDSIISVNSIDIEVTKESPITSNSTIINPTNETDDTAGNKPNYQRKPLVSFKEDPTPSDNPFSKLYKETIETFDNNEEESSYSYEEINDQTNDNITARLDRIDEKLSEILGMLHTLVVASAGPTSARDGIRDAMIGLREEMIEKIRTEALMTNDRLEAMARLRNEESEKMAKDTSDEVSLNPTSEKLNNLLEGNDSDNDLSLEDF
RSV L+P complex, sequence (P28887 whole entry): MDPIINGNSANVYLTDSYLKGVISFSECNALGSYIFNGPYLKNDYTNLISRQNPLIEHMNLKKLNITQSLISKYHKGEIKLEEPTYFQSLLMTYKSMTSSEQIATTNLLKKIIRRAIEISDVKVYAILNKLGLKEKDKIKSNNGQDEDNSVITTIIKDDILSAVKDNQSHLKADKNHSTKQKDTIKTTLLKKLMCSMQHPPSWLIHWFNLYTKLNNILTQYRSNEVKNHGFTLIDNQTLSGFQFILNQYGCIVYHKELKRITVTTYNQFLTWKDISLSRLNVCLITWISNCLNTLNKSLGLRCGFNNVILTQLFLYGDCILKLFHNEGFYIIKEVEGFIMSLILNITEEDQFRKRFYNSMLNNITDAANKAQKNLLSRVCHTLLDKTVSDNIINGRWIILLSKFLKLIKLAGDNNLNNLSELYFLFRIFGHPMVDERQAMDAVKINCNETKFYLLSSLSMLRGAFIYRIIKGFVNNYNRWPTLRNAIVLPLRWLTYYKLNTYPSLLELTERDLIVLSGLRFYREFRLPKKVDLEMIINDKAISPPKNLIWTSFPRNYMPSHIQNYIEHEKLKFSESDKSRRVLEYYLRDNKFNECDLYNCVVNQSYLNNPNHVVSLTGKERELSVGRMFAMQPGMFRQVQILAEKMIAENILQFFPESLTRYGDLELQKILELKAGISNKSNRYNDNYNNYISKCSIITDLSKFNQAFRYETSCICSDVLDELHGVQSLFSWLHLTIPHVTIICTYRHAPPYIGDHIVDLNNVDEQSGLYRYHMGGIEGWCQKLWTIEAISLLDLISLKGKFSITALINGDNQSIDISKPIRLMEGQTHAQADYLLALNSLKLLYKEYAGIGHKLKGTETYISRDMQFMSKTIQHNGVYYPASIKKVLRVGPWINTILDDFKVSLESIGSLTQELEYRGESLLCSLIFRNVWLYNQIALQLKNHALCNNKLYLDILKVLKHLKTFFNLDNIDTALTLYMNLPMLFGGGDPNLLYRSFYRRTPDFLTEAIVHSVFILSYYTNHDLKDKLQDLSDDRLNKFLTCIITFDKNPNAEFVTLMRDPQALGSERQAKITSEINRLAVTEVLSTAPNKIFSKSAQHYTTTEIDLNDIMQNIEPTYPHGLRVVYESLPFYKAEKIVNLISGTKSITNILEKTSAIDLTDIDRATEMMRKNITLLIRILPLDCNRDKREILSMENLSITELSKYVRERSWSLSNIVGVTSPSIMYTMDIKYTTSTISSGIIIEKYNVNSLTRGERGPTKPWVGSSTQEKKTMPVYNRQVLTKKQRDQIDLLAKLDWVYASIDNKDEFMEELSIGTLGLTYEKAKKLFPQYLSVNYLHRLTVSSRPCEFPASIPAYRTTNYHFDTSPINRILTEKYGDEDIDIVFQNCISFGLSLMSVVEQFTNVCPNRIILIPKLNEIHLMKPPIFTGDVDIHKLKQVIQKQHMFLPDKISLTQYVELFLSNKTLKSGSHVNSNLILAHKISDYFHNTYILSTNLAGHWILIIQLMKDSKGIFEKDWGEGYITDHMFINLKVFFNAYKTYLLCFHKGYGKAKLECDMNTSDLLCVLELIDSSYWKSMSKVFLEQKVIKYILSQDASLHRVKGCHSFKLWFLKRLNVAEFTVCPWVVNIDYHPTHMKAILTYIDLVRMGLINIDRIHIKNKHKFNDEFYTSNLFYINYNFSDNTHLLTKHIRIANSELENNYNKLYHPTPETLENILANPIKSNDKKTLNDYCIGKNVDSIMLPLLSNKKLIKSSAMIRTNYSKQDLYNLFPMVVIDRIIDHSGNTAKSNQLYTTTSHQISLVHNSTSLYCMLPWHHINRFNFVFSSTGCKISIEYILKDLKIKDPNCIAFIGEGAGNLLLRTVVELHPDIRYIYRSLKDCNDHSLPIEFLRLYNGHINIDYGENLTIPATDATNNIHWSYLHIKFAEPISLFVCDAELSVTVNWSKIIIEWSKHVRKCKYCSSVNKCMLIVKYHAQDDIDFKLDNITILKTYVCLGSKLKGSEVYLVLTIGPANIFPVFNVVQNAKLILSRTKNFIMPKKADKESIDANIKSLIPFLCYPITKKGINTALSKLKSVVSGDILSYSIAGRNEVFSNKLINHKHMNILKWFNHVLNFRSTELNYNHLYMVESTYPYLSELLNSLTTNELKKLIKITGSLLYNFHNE

COc1cc(C(=O)NC[C@](O)(c2cc(C(C)(C)O)c(F)c(-c3ccc(F)cc3)n2)C(F)(F)F)cc2cc(C)nnc12 [JNJ-8003]
CC50 (in vitro [1]; Median CC50, LLC-MK2, parallel to HMPV assay): 14 µM
CC50 (in vitro [1]; Median CC50, LLC-MK2, parallel to PIV-1 assay): 18 µM
CC50 (in vitro [1]; Median CC50, LLC-MK2, parallel to PIV-3 assay): 19 µM
IC50 (Human RNA polymerase II): > 100 µM
CC50 (in vitro [2]): > 25 µM
CC50 at 3 days [3]: 11 µM
ΔTm at 25 µM (RSV L+P complex): 6 °C
antigenome RNA and mRNA (in words) [4]: dose dependent reduction
inhibition (in words) [5]: negligible inhibition
inhibition (in words) [6]: negligible inhibition
EC50 ([6]; Vesicular stomatitis virus, A549, read-out: Median EC50): > 25 µM
EC50 [7]: 0.0001 µM
EC50 [8]: 0.00015 µM
